Results from patent US20110060268A1, “NAIL TREATMENT DEVICE” (POWER PAPER LTD., priority 2008, published 2011).
Counter-ions that a name gives are not always drawn.

Assays:
Format in all cases: in vivo, patients
[1] = tested on: distal and lateral subungual toenail onychomycosis; experiment: Clinical trial in toenail onychomycosis: healthy toenail growth
Procedure: (§1) A clinical trial was conducted to evaluate delivery of terbinafine HCl with an iontophoretic device according to an aspect of the present invention in patients with toenail onychomycosis. 38 patients suffering from distal and lateral subungual toenail onychomycosis were enrolled into the study and were divided randomly into group A (20 subjects) and group B (18 subjects). Onychomycosis was confirmed by both KOH examination and mycological culture, wherein samples were taken from the distal parts of the nail. Nail samples were divided, one part being used for direct KOH examination and the second part for fungal culture using Sabouraud's Dextrose agar (Novamed, Jerusalem, Israel). The identification of the fungus was done on the basis of morphologic characteristics. Group A was tested with 1% terbinafine HCl and an iontophoretic patch using a constant current density of 100 μA/cm^2. Group B was tested with 1% terbinafine HCl without iontophoresis. Treatment period was overnight wear, every day, five days per week, for 4 weeks. During the treatment period visits were conducted every 10 days (visits 2-4). The follow-up period was 10 weeks from the end of treatment (visit 5). At each visit nail photography and KOH examination were performed. […] Terbinafine content in affected nail samples was determined by clipping nails at visits 4 & 5. […] The eluted solution was analysed by HPLC.

[2] = tested on: fungal elements (KOH) in nail specimens; experiment: Clinical trial in toenail onychomycosis: KOH examination for fungal elements in nail specimens; settings: 10 weeks following completion of treatment
Procedure: as §1

[3] = Terbinafine content in clipped nail samples by HPLC
Procedure: Group A was tested with 1% terbinafine HCl and an iontophoretic patch using a constant current density of 100 μA/cm^2. Group B was tested with 1% terbinafine HCl without iontophoresis. Treatment period was overnight wear, every day, five days per week, for 4 weeks. During the treatment period visits were conducted every 10 days (visits 2-4). The follow-up period was 10 weeks from the end of treatment (visit 5). At each visit nail photography and KOH examination were performed. Routine blood test; complete blood count and liver functions tests were performed at the before study initiation, at the end of the treatment and at the end of the follow-up period. Terbinafine content in affected nail samples was determined by clipping nails at visits 4 & 5. Nails were then weighed and cut into symmetric shapes in order to estimate their area. Symmetric shapes of nails were then cut into small pieces and inserted into tubes with 0.5 ml DDW. Subsequently, methanol 0.5 ml was added and tubes were sonicated. The eluted solution was analysed by HPLC.

[4] = Clinical trial: safety and tolerability of iontophoretic terbinafine delivery; settings: terbinafine delivered into the nail with the iontophoretic device, nail onychomycosis
Procedure: as §1

Terbinafine nail content ([3]; end of follow up period (visit 5), active group A (iontophoretic patch)): 2.41 μg/cm^2
Terbinafine nail content ([3]; end of follow up period (visit 5), passive group B (without iontophoresis)): 0.15 μg/cm^2
Terbinafine nail content ([3]; visit 4, passive group B (without iontophoresis)): 1.34 μg/cm^2
SMILES: CN(C/C=C/C#CC(C)(C)C)Cc1cccc2ccccc12 [terbinafine, terbinafine HCl]
percentage of patients having healthy toenail growth above 1.5 mm at the end of treatment ([1]; group A: 1% terbinafine HCl with iontophoretic patch, constant current density 100 μA/cm^2, 4 weeks): 40%
percentage of patients having healthy toenail growth above 1.5 mm at the end of treatment ([1]; passive group B: 1% terbinafine HCl without current, 4 weeks): 11%
percentage of patients having fungal elements (KOH) in nail specimens ([2]; active group A (iontophoretic patch, 100 μA/cm^2)): 15%
percentage of patients having fungal elements (KOH) in nail specimens ([2]; passive group B (without iontophoresis)): 53%
safety and tolerability [4]: safe and well tolerated
